Test results reported in US20250296938A1, “Compounds that Interact with the Ras Superfamily for the Treatment of Cancers, Inflammatory Diseases, Rasopathies, and Fibrotic Disease” (SHY Therapeutics, LLC, priority 2018, published 2025).
Like-named read-outs stand apart in the source and are kept apart here.

How the values were obtained:
Assay in all cases: Ras GTP binding domain inhibition assay (Cy3-GTP/Cy5-GTP competition)
Rac-1 = Rac-1 (Homo sapiens, UniProt P63000)
Method in brief: (§1)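 Compounds tested at 20 μM or in serial dilution for IC50 against nickel-captured His-tagged GTPase, 3 hours at room temperature, with or without His-Sos GEF added for last hour. Fluorescent GTP then added at 100 nM for 45 minutes; wells washed, bound label measured by fluorescence.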

Rho-A = Rho-A (Homo sapiens, UniProt P61586)
Method in brief: as §1

KRas G12D mutant = target: T1, KRas G12D mutant (Homo sapiens, UniProt P01116, G12D); conditions: at 20 μM
T1 construct: fused on or other part: His tag, used for capture on nickel-coated plates
Method in brief: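 Ni-plate immobilised His-Ras, overnight 4 °C; cpd 20 μM (or dilution series for IC50), 1% DMSO, 3 h RT; optional His-Sos […] last hour; Cy3- or Cy5-GTP 100 nM, 45 min RT; 3× wash; bound fluorescence read.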

[1] = with SOS, read-out: Rac-1 + SOS: % inh.
[2] = without SOS, read-out: Rac-1: % inh.
[3] = with SOS, read-out: Rho-A + SOS: % inh.
[4] = without SOS, read-out: Rho-A: % inh.
[5] = with SOS, read-out: KRas G12D mutant + SOS: % inh.
[6] = without SOS, read-out: KRas G12D mutant: % inh.

| SMILES | inhibition at 20 µM (Rac-1; [1]) [%] | inhibition at 20 µM (Rac-1; [2]) [%] | inhibition at 20 µM (Rho-A; [3]) [%] | inhibition at 20 µM (Rho-A; [4]) [%] | inhibition at 20 µM (KRas G12D mutant; [5]) [%] | inhibition at 20 µM (KRas G12D mutant; [6]) [%] | Rac-1 + SOS: % inh. (Rac-1; at 20 μM, with SOS) | Rac-1: % inh. (Rac-1; at 20 μM, without SOS) | Rho-A + SOS: % inh. (Rho-A; at 20 μM, with SOS) | Rho-A: % inh. (Rho-A; at 20 μM, without SOS) | KRas G12D mutant: % inh. (KRas G12D mutant; without SOS) |
| --- | --- | --- | --- | --- | --- | --- | --- | --- | --- | --- | --- |
| Cn1ccnc1-c1nc(O)c(O)c(C(=O)N2CCCC2)n1 [drawing 963] | 26 to 50 | 51 to 75 | 51 to 75 | 1 to 25 | 1 to 25 | 26 to 50 |  |  |  |  |  |
| CCN(CC)C(=O)c1nc(-c2nccn2C)nc(O)c1O [drawing 964] | 1 to 25 | 26 to 50 | 51 to 75 | 26 to 50 | 1 to 25 | 51 to 75 |  |  |  |  |  |
| CC(C)NC(=O)c1nc(-c2nccn2C)nc(O)c1O [drawing 965] | 51 to 75 | 51 to 75 | 76 to 100 | 51 to 75 | 26 to 50 | 51 to 75 |  |  |  |  |  |
| O=C(c1nc(-c2ccccn2)nc(O)c1O)N1CCCC1 [drawing 966] | 26 to 50 | 26 to 50 | 51 to 75 | 76 to 100 | 1 to 25 | 51 to 75 |  |  |  |  |  |
| O=C(c1nc(-c2ccccn2)nc(O)c1O)N1CCc2ccccc2C1 [drawing 967] | 51 to 75 | 76 to 100 | 76 to 100 | 76 to 100 | 26 to 50 | 51 to 75 |  |  |  |  |  |
| Oc1nc(-c2ncc3n2CCCC3)nc2c(-c3ccccn3)csc12 [drawing 968] | 76 to 100 | 51 to 75 | 76 to 100 | 26 to 50 | 51 to 75 | 51 to 75 |  |  |  |  |  |
| Oc1nc(-c2ncc3ccccn23)nc2c(-c3ccccn3)csc12 [drawing 969] | 76 to 100 | 76 to 100 | 76 to 100 | 76 to 100 | 51 to 75 | 76 to 100 |  |  |  |  |  |
| COC1CCN(c2nc(-c3nccn3C)nc3sc(-c4cnn(C)c4)c(-c4ccccc4)c23)C1 (stereo not drawn) [drawing 970] | 0 | 0 | 76 to 100 | 26 to 50 | 76 to 100 | 26 to 50 |  |  |  |  |  |
| COc1ccc(-c2sc3nc(-c4nccn4C)nc(N4CCC(OC)C4)c3c2-c2ccccc2)cn1 (stereo not drawn) [drawing 971] | 0 | 0 | 26 to 50 | 51 to 75 | 51 to 75 | 26 to 50 |  |  |  |  |  |
| COC1CCN(c2nc(-c3nccn3C)nc3sc(-c4ccnn4C)c(-c4ccccc4)c23)C1 (stereo not drawn) [drawing 972] | 1 to 25 | 26 to 50 | 76 to 100 | 51 to 75 | 51 to 75 | 51 to 75 |  |  |  |  |  |
| COc1cccc(-c2sc3nc(-c4nccn4C)nc(N4CCC(OC)C4)c3c2-c2ccccc2)c1F.Cl (stereo not drawn) [drawing 973] |  |  |  |  | 51 to 75 |  | 0 (0% inhibition) | A (1-25% inhibition) | C (51-75% inhibition) | A (1-25% inhibition) | C (51-75% inhibition) |
| COc1ccc(Cn2cnc(-c3nc(O)c4scc(-c5ccccn5)c4n3)c2)cc1 [drawing 974] | 1 to 25 | 1 to 25 | 0 | 0 | 0 | 1 to 25 |  |  |  |  |  |
| COc1nscc1-c1sc2nc(-c3nccn3C)nc(N3CCC(OC)C3)c2c1-c1ccccc1 (stereo not drawn) [drawing 975] | 26 to 50 | 26 to 50 | 1 to 25 | 1 to 25 | 51 to 75 | 26 to 50 |  |  |  |  |  |
| COCCn1cc(-c2sc3nc(-c4nccn4C)nc(N4CCC(OC)C4)c3c2-c2ccccc2)cn1 (stereo not drawn) [drawing 976] | 51 to 75 | 51 to 75 | 26 to 50 | 26 to 50 | 51 to 75 | 51 to 75 |  |  |  |  |  |
| COC1CCN(c2nc(-c3nccn3C)nc3sc(-c4cnc(C5CC5)o4)c(-c4ccccc4)c23)C1 (stereo not drawn) [drawing 977] | 1 to 25 | 1 to 25 | 51 to 75 | 26 to 50 | 51 to 75 | 51 to 75 |  |  |  |  |  |
| COc1ncccc1-c1sc2nc(-c3nccn3C)nc(N3CCC(OC)C3)c2c1-c1ccccc1 (stereo not drawn) [drawing 978] | 51 to 75 | 26 to 50 | 51 to 75 | 51 to 75 | 51 to 75 | 51 to 75 |  |  |  |  |  |

| SMILES | inhibition at 20 µM (Rac-1; [1]) [%] | inhibition at 20 µM (Rac-1; [2]) [%] | inhibition at 20 µM (Rho-A; [3]) [%] | inhibition at 20 µM (Rho-A; [4]) [%] | inhibition at 20 µM (KRas G12D mutant; [5]) [%] | inhibition at 20 µM (KRas G12D mutant; [6]) [%] | Rac-1 + SOS: % inh. (Rac-1; at 20 μM, with SOS) | Rac-1: % inh. (Rac-1; at 20 μM, without SOS) | Rho-A + SOS: % inh. (Rho-A; at 20 μM, with SOS) | Rho-A: % inh. (Rho-A; at 20 μM, without SOS) | KRas G12D mutant: % inh. (KRas G12D mutant; without SOS) |
| --- | --- | --- | --- | --- | --- | --- | --- | --- | --- | --- | --- |
| COC1CCN(c2nc(-c3nccn3C)nc3sc(-c4cccnc4)c(-c4ccccc4)c23)C1 (stereo not drawn) [drawing 979] | 51 to 75 | 76 to 100 | 51 to 75 | 51 to 75 | 51 to 75 | 51 to 75 |  |  |  |  |  |
| COc1cc(-c2sc3nc(-c4nccn4C)nc(N4CCC(OC)C4)c3c2-c2ccccc2)ccn1 (stereo not drawn) [drawing 980] | 1 to 25 | 26 to 50 | 26 to 50 | 1 to 25 | 51 to 75 | 51 to 75 |  |  |  |  |  |
| Cc1cc(Cn2ccnc2-c2nc(O)c3scc(-c4ccccn4)c3n2)on1 [drawing 981] | 51 to 75 | 51 to 75 | 26 to 50 | 1 to 25 | 26 to 50 | 51 to 75 |  |  |  |  |  |
| Oc1nc(-c2cn(-c3ccccc3)cn2)nc2c(-c3ccccn3)csc12 [drawing 982] | 1 to 25 | 26 to 50 | 26 to 50 | 0 | 1 to 25 | 1 to 25 |  |  |  |  |  |
| Oc1nc(-c2cn3cccnc3n2)nc2c(-c3ccccn3)csc12 [drawing 983] | 0 | 0 | 1 to 25 | 26 to 50 | 1 to 25 | 1 to 25 |  |  |  |  |  |
| COC1CCN(c2nc(-c3nccn3C)nc3sc(-c4ccccc4Cl)c(-c4cscn4)c23)C1 (stereo not drawn) [drawing 984] | 76 to 100 | 51 to 75 | 51 to 75 | 0 | 51 to 75 | 51 to 75 |  |  |  |  |  |
| COc1cccc(Cn2ccnc2-c2nc(O)c3scc(-c4ccccn4)c3n2)c1 [drawing 985] | 76 to 100 | 76 to 100 | 51 to 75 | 26 to 50 | 51 to 75 | 76 to 100 |  |  |  |  |  |
| Oc1nc(-c2nccn2Cc2ccccn2)nc2c(-c3ccccn3)csc12 [drawing 986] | 51 to 75 | 76 to 100 | 51 to 75 | 51 to 75 | 51 to 75 | 76 to 100 |  |  |  |  |  |
| COCCn1ccnc1-c1nc(O)c2scc(-c3ccccn3)c2n1 [drawing 987] | 76 to 100 | 76 to 100 | 51 to 75 | 51 to 75 | 51 to 75 | 76 to 100 |  |  |  |  |  |
| Cn1ccnc1-c1nc(O)c2scc(-c3ccccn3)c2n1 [drawing 988] | 76 to 100 | 51 to 75 | 76 to 100 | 51 to 75 | 51 to 75 | 76 to 100 |  |  |  |  |  |
| COCC(C)Nc1nc(-c2nccn2C)nc2sc(-c3ccccc3Cl)c(-c3cscn3)c12 (stereo not drawn) [drawing 989] | 26 to 50 | 26 to 50 | 26 to 50 | 26 to 50 | 51 to 75 | 51 to 75 |  |  |  |  |  |
| COCC(C)Nc1nc(-c2nccn2C)nc2sc(-c3cccc(OC)c3)c(-c3cscn3)c12 (stereo not drawn) [drawing 990] | 1 to 25 | 26 to 50 | 26 to 50 | 26 to 50 | 51 to 75 | 51 to 75 |  |  |  |  |  |
| COC1CCN(c2nc(-c3nccn3C)nc3sc(-c4ccn(C)n4)c(-c4ccccc4)c23)CC1 [drawing 991] | 26 to 50 | 26 to 50 | 0 | 0 | 26 to 50 | 26 to 50 |  |  |  |  |  |
| Cn1ccc(-c2sc3nc(-c4nccn4C)nc(N4CCC5(CCOC5)C4)c3c2-c2ccccc2)n1 (stereo not drawn) [drawing 992] | 26 to 50 | 26 to 50 | 76 to 100 | 0 | 1 to 25 | 26 to 50 |  |  |  |  |  |
| CO[C@@H]1CCC(Nc2nc(-c3nccn3C)nc3sc(-c4ccn(C)n4)c(-c4ccccc4)c23)C1 (stereo partly drawn) [drawing 994] | 26 to 50 | 26 to 50 | 76 to 100 | 0 | 26 to 50 | 26 to 50 |  |  |  |  |  |
| CO[C@H]1CCC(Nc2nc(-c3nccn3C)nc3sc(-c4ccn(C)n4)c(-c4ccccc4)c23)C1 (stereo partly drawn) [drawing 995] | 51 to 75 | 51 to 75 | 76 to 100 | 51 to 75 | 51 to 75 | 1 to 25 |  |  |  |  |  |
